Targets include ACVRL1 (Homo sapiens, UniProt P37023); CDK8 (Homo sapiens, UniProt P49336); CLK4 (Homo sapiens, UniProt Q9HAZ1); CSNK1D (Homo sapiens, UniProt P48730); CSNK1G2 (Homo sapiens, UniProt P78368); DYRK2 (Homo sapiens, UniProt Q92630); FGFR1 (Homo sapiens, UniProt P11362); FLT3(D835Y) (Homo sapiens, UniProt P36888, D835Y); GSK3B (Homo sapiens, UniProt P49841); MERTK (Homo sapiens, UniProt Q12866); MUSK (Homo sapiens, UniProt O15146); PDPK1 (Homo sapiens, UniProt O15530); PIK3CA(H1047L) (Homo sapiens, UniProt P42336, H1047L); PIP5K1A (Homo sapiens, UniProt Q99755); PKMYT1 (Homo sapiens, UniProt Q99640); PRKD2 (Homo sapiens, UniProt Q9BZL6); SRPK1 (Homo sapiens, UniProt Q96SB4).

What all share (assay): biochemical
Common to all, as to parameters: KINOMEscan scanMAX competition binding, DNA-tagged kinases, qPCR read-out, percent control at 300 nM
(In general: In qPCR the cycle at which signal appears reflects the starting amount.)

Another experiment has as its target T1, DCAMKL3 (Homo sapiens, UniProt Q9C098).
T1 construct: gene DCLK3

Experiment [1] has as its target T2, RSK2(Kin.Dom.1-N-terminal) (Homo sapiens, UniProt P51812).
T2 construct: gene RPS6KA3; Kin.Dom.1-N-terminal

Experiment [2] has as its target T3, RSK3(Kin.Dom.1-N-terminal) (Homo sapiens, UniProt Q15349).
T3 construct: gene RPS6KA2; Kin.Dom.1-N-terminal

A further experiment has as its target T4, SgK110 (Homo sapiens, UniProt P0C264).
T4 construct: gene SBK3

For experiment [3], the target named is T5, TYK2(JH2domain-pseudokinase) (Homo sapiens, UniProt P29597).
T5 construct: JH2domain-pseudokinase

The target of the next experiment is T6, AMPK-alpha2 (Homo sapiens, UniProt P54646).
T6 construct: gene PRKAA2
T6 sequence (P54646 whole entry): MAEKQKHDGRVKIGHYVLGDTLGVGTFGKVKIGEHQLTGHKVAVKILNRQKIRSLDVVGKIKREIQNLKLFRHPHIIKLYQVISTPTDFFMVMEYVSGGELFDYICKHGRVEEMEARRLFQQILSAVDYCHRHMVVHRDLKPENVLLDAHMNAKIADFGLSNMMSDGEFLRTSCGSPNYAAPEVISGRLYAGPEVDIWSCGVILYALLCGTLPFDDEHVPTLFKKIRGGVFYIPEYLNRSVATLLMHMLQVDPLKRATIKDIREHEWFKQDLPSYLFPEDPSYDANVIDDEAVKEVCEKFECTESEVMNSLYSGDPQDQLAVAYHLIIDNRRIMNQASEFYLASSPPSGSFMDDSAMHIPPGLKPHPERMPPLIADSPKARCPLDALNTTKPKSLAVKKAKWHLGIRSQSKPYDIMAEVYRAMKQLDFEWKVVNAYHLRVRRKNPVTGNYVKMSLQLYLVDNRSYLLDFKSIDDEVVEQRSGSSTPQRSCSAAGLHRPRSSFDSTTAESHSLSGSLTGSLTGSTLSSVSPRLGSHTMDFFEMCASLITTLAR

Where [4] appears, read: read-out: Percent control / Zanubrutinib.
Where [5] appears, read: read-out: Percent control / Tirabrutinib.
Where [6] appears, read: read-out: Percent control / Ibrutinib.
[7] abbreviates: read-out: Percent control / Acalabrutinib.

Remaining binding data for 4 molecules are collected here from publication PMC10004634 (PLOS ONE, 2023).

The structures appear in SMILES notation. Like-named read-outs stand apart in the source and are kept apart here.

T1 sequence (Q9C098 whole entry): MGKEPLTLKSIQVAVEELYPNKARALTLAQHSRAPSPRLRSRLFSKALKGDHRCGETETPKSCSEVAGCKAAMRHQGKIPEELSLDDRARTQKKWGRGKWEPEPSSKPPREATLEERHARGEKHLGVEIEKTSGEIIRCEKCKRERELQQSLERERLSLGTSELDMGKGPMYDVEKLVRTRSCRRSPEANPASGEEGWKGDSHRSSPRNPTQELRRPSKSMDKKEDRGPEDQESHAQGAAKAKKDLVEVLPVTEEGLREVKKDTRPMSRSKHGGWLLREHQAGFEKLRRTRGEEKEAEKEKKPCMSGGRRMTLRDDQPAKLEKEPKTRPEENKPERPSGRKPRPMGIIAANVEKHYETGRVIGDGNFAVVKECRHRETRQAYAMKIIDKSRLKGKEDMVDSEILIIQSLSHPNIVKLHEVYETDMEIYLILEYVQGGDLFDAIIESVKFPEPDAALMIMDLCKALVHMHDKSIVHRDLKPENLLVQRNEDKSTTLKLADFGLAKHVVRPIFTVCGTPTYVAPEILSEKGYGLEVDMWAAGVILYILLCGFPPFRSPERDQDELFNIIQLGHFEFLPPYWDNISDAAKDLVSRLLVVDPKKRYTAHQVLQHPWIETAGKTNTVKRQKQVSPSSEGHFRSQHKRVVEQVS
Sequence of CSNK1G2 (P78368 whole entry): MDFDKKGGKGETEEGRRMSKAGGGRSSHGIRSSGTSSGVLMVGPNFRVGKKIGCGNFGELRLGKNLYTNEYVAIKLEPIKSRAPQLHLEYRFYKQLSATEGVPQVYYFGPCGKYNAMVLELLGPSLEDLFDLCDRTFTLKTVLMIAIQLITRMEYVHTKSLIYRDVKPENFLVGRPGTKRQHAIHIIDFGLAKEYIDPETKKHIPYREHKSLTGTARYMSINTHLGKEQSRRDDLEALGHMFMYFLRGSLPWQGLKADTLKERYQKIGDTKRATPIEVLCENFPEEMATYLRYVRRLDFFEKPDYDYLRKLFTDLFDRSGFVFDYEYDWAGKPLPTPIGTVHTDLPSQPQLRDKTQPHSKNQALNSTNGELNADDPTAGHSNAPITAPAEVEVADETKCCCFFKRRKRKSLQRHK
Sequence of SRPK1 (Q96SB4 whole entry): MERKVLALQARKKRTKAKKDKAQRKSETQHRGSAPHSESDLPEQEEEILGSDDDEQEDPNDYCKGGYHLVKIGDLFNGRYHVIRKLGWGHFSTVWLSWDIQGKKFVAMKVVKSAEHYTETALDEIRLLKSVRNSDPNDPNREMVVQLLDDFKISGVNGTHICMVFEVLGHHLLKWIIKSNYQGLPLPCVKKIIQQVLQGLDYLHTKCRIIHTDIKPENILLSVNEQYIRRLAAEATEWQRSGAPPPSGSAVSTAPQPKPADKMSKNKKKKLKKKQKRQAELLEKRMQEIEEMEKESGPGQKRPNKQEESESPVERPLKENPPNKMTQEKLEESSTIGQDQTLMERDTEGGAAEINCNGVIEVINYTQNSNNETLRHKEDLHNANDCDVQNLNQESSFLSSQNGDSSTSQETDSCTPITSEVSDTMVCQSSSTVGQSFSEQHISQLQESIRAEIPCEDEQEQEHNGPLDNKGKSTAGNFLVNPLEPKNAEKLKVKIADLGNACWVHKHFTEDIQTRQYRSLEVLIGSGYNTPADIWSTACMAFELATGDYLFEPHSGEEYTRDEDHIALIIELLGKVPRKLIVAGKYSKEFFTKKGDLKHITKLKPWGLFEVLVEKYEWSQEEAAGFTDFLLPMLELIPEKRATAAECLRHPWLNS
Sequence of DYRK2 (Q92630 whole entry): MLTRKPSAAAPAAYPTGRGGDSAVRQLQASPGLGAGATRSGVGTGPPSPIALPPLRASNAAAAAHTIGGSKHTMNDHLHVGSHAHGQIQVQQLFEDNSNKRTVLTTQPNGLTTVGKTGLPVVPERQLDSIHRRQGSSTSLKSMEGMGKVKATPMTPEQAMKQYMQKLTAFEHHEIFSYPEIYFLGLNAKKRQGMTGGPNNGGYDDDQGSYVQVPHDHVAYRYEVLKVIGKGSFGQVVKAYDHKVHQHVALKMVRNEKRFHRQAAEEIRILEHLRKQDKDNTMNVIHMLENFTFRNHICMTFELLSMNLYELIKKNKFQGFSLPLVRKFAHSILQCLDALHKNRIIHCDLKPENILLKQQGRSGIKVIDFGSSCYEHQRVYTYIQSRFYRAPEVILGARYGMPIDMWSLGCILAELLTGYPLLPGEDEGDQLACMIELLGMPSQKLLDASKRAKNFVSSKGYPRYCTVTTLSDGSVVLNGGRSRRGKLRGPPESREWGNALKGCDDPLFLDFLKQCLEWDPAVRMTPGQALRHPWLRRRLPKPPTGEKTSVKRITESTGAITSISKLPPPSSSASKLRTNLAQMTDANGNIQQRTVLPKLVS
Sequence of ACVRL1 (P37023 whole entry): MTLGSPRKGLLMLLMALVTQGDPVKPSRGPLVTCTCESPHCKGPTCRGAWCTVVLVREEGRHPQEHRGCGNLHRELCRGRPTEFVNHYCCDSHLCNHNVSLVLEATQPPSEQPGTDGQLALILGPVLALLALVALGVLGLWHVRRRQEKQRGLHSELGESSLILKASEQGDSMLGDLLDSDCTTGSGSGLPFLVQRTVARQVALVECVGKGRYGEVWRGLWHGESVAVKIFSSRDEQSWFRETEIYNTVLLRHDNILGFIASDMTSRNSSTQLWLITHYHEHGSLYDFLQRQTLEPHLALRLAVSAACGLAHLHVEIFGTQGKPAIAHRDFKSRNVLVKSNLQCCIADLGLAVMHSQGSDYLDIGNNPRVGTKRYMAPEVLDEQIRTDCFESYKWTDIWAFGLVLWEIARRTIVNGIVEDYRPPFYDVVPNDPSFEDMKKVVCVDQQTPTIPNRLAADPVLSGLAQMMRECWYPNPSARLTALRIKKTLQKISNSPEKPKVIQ
Sequence of PKMYT1 (Q99640 whole entry): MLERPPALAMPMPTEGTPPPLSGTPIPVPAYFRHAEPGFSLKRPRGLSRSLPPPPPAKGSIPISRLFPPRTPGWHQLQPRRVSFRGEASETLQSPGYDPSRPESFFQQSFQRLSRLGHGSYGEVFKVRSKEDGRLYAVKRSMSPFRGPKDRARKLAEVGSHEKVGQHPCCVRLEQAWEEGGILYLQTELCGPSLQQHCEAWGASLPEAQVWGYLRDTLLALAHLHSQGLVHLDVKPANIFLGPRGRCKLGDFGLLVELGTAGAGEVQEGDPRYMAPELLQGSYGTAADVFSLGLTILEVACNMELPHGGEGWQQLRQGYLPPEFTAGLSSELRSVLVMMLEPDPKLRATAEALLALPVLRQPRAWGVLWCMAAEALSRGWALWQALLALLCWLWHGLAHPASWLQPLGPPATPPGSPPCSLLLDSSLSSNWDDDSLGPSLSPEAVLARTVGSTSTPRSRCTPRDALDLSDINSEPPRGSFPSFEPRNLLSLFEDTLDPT
Sequence of CSNK1D (P48730 whole entry): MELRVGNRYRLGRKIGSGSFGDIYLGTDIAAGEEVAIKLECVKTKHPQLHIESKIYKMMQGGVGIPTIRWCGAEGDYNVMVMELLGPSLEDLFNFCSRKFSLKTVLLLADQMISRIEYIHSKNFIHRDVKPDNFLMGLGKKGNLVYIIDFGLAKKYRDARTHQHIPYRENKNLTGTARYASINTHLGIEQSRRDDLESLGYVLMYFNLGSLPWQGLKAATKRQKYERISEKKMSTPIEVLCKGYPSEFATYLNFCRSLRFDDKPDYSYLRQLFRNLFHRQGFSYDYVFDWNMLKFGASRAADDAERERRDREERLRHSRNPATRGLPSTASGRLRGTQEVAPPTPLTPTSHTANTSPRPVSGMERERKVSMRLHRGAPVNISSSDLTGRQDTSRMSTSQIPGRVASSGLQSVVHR
Sequence of CDK8 (P49336 whole entry): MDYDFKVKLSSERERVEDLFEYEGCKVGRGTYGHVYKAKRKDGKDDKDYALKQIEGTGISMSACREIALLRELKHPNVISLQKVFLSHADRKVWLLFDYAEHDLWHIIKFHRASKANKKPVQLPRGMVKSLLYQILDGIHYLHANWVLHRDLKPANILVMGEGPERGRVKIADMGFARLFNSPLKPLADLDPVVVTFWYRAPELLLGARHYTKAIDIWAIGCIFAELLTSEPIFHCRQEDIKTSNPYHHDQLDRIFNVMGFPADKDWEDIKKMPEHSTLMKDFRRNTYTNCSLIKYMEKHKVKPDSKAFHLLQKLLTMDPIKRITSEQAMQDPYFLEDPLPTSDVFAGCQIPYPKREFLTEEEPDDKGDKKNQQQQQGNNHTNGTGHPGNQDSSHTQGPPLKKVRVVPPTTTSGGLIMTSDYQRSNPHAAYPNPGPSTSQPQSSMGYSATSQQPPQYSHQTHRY

For the molecule `C=CC(=O)N1CCC([C@@H]2CCNc3c(C(N)=O)c(-c4ccc(Oc5ccccc5)cc4)nn32)CC1` [Zanubrutinib], the remaining binding at 0.3 µM on ACVRL1 (setting [4]) is 75%; on CDK8 (setting [4]), 100%; at CLK4 (setting [4]), 99%; on CSNK1D (setting [4]), 100%; at CSNK1G2 (setting [4]), 88%; at DCAMKL3 (setting [4]), 100%. Also, the remaining binding at 0.3 µM at DYRK2 (setting [4]) was 81%; at FGFR1 (setting [4]) it was 68%; at FLT3(D835Y) (setting [4]), 47%; on GSK3B (setting [4]) it was 74%; at MERTK (setting [4]), 91%; on MUSK (setting [4]), 96%. The remaining binding at 0.3 µM was 100% on PDPK1 (setting [4]); 100% on PIK3CA(H1047L) (setting [4]); 92% on PIP5K1A (setting [4]); 81% at PKMYT1 (setting [4]); 100% on PRKD2 (setting [4]); 82% in [1] (setting [4]). Moreover, the remaining binding at 0.3 µM in experiment [2] (setting [4]) was found to be 100%; at SgK110 (setting [4]), 91%; in experiment [3] (setting [4]), 82%.
In the case of `CC#CC(=O)N1CC[C@@H](n2c(=O)n(-c3ccc(Oc4ccccc4)cc3)c3c(N)ncnc32)C1` [Tirabrutinib], the remaining binding at 0.3 µM was 94% on ACVRL1 (setting [5]), 82% at CLK4 (setting [5]), 99% on DCAMKL3 (setting [5]) and 99% on DYRK2 (setting [5]).
In the case of `C=CC(=O)N1CCC[C@@H](n2nc(-c3ccc(Oc4ccccc4)cc3)c3c(N)ncnc32)C1` [Ibrutinib], the remaining binding at 0.3 µM came to 97% at AMPK-alpha2 (setting [6]); 66% on FGFR1 (setting [6]); 70% on MERTK (setting [6]); 99% on PDPK1 (setting [6]); 85% on SRPK1 (setting [6]).
Regarding `CC#CC(=O)N1CCC[C@H]1c1nc(-c2ccc(C(=O)Nc3ccccn3)cc2)c2c(N)nccn12` [Acalabrutinib], the remaining binding at 0.3 µM on AMPK-alpha2 (setting [7]) turned out to be 96%; on CDK8 (setting [7]), 93%; at CSNK1D (setting [7]) it was 85%; at CSNK1G2 (setting [7]) it was 87%; on FLT3(D835Y) (setting [7]), 82%; at GSK3B (setting [7]) it was 97%. Moreover, the remaining binding at 0.3 µM at MUSK (setting [7]) was found to be 82%; at PIK3CA(H1047L) (setting [7]), 90%; on PIP5K1A (setting [7]) it was 83%; at PKMYT1 (setting [7]), 94%; at PRKD2 (setting [7]) it was 70%; in [1] (setting [7]), 84%. The remaining binding at 0.3 µM in experiment [2] (setting [7]) amounted to 85%; at SRPK1 (setting [7]), 84%; at SgK110 (setting [7]) it was 94%; in experiment [3] (setting [7]), 97%.
